In one series the test system is bean leaf (Vicia faba). Nature of the series: Uptake (stomatal infiltration) of ^14C-glyphosate isopropylamine salt into bean leaf. It counts as in vivo. How it is done: The impact of the TSA-1/TSA-2 blends on the uptake of ^14C-glyphosate (herbicide) solutions into bean leaf (Vicia fava) was determined at 10 minutes after application, according to the method described by Stevens et al., Contributions of stomatal infiltration and cuticular penetration to enhancements of foliar uptake by surfactants. […]. Sci., 33, 371-382, to establish the contribution of trisiloxane alkoxylate (TSA) surfactants on the speed of uptake, via stomatal infiltration). Here glyphosate solutions containing 0.4% TSA surfactant was applied to bean leaf using a micro-syringe. At 10 minutes after application, the leaf was washed with aqueous ethanol and uptake was determined by subtraction, using a scintillation counter to measure residual ^14C-glyphosate-IPA salt (Stevens et al. […]. Sci., 33, 371-382). The uptake by stomatal infiltration of ^14C-glyphosate-isopropyl amine salt into bean-leaf (Vicia faba) at 10 minutes after application was determined as outlined in Example 4.

Series [1] in a line: Dynamic surface tension (Kruss Maximum Bubble Pressure tensiometer). The format is physicochemical. Conditions: 0.4 wt % in deionized water. The procedure:
Dynamic surface tension (DST) was measured using a Kruss Maximum Bubble Pressure tensiometer. TSA solutions were prepared at 0.4 wt % in deionized water, further purified with a Milli-Q ultrapure filtration system (Millipore Corp.). The data for surface tension vs time (milliseconds) was plotted and then the surface tension was calculated from a trend line to generate surface tension data at 75, 100, 150 and 200 milliseconds (mSec).

Values joined by “and” are separate entries in the source; they are usually repeats but may differ in a detail not shown here. Equal entries are not always repeated.

Turning to `C[Si](C)(C)O[Si](C)(CCCOCCOCCOCCOCCOCCOCCOCCOCCO)O[Si](C)(C)C` [TSA-1-B], the “Uptake (%) Observed” value with bean leaf (Vicia faba) (^14C-glyphosate into bean, 0.4% TSA adjuvant, 10 minutes after application) was 79.3 ab % and 90.2 a % and 88.0 ab % and 85.9 a %. Besides, the “Uptake (%) Predicted” value in the series on bean leaf (Vicia faba) (weighted average of the components, 0.4% adjuvant, 10 minutes) is 79.3% and 90.2% and 88.0% and 85.9%. The “Dynamic Surface Tension, IFDT 75 mSec” value in series [1] (calculated from trend line at 75 mSec) is listed as 49.5 mN/m. Moreover, the “Dynamic Surface Tension, IFDT 100 mSec” value in series [1] (calculated from trend line at 100 mSec) is given as 47.6 mN/m. The “Dynamic Surface Tension, IFDT 150 mSec” value in series [1] (calculated from trend line at 150 mSec) was 43.9 mN/m. In addition, the “Dynamic Surface Tension, IFDT 200 mSec” value in series [1] (calculated from trend line at 200 mSec) is reported as 40.1 mN/m.

The record behind these values is patent publication US20210029991A1, “TRISILOXANE ALKOXYLATE COMPOSITIONS” (Momentive Performance Materials Inc., priority 2018, published 2021).
